Earlier results in patent publication US8645075B2, “Method for predicting organ toxicity and a system thereof” (Strand Life Sciences PVT Ltd., priority 2008, dated 2014).
Read-outs that look alike come from different tables or passages of the source.

Legend:
[1] = target: T1, CPT1 (Homo sapiens, UniProt P50416)
T1 sequence (P50416 1-773): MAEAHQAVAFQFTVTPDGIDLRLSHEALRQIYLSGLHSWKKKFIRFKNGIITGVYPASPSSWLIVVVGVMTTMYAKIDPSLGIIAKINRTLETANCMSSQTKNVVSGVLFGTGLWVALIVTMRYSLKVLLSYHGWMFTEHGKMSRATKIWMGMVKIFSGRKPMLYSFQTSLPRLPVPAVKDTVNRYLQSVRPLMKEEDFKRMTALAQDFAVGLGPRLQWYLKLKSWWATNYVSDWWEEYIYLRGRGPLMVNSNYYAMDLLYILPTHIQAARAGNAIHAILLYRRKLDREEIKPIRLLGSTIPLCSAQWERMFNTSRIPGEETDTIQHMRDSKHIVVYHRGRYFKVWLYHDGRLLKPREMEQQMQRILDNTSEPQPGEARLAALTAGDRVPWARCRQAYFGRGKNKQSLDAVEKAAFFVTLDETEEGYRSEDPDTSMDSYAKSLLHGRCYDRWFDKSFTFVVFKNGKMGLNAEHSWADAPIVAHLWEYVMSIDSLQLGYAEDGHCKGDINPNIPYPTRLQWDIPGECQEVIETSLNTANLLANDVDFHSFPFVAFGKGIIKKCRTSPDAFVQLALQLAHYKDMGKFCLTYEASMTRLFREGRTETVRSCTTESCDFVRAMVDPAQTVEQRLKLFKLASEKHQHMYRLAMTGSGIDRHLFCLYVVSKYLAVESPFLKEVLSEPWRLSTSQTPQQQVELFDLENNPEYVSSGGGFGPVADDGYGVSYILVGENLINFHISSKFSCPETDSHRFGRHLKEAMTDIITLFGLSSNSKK

[2] = test system: FoF1 ATPase; conditions: experimental value used for model validation

CCCCc1oc2ccccc2c1C(=O)c1cc(I)c(OCCN(CC)CC)c(I)c1 [Amiodarone]
Triglyceride accumulation, Experiment ([1]; experimental value used for model validation): 150%

C=C(C)[C@]12C[C@@H](C)[C@@]34O[C@](c5ccccc5)(O[C@@H]1[C@@H]3[C@@H]1O[C@]1(CO)[C@@H](O)[C@]1(O)C(=O)C(C)=C[C@H]14)O2 [Daphnetoxin]
EC value (Energy Charge), Experiment [2]: 0.52

C1CCC(C(CC2CCCCN2)C2CCCCC2)CC1 (stereo not drawn) [Perhexilline]
Triglyceride accumulation, Experiment [1]: 98%
